Measured values reported in patent publication US20070128217A1 (priority 2003, published 2007).

How the values were obtained:
[1] = system: rabbit serum obtained by immunizing a rabbit with the SARS-CoV strain Frankfurt 1; format: binding; parameters: Binding of a rabbit serum to linear peptides / Binding of a rabbit serum to looped peptides / Rabbit serum linear peptides / Rabbit serum looped peptides / Binding of a rabbit serum to linear peptides of protein N of SARS-CoV Urbani (Rabbit serum linear peptides) / Binding of a rabbit serum to looped/cyclic peptides of protein N of SARS-CoV Urbani (Rabbit serum looped peptides): unit not given here
[2] = system: control sera (pooled serum of ten healthy LUMC hospital workers; commercial negative donor pooled serum from the Dutch bloodbank); format: binding, human; parameters: Binding of Control serum LUMC to linear peptides / Binding of Control serum Blood-bank to linear peptides / Binding of Control serum LUMC to looped peptides / Binding of Control Serum Blood-Bank to Looped peptides / Binding of Control serum LUMC to linear peptides of the protein M of SARS-CoV Urbani / Binding of Control serum Blood-bank to linear peptides of the protein M of SARS-CoV Urbani / Binding of Control serum LUMC to looped peptides of the protein M of SARS-CoV Urbani / Binding of Control Serum Blood-Bank to Looped peptides of the protein M of SARS-CoV Urbani: unit not given here
[3] = system: antibodies in sera from SARS patients (sera 1a, 1b, 2, 6, 37, 62, London, SARS-yellow, SARS-green); format: binding, human; parameters: Binding of serum 6 to linear peptides of protein X1 of SARS-CoV Urbani / Binding of serum 37 to linear peptides of protein X1 of SARS-CoV Urbani / Binding of serum 6 to looped/cyclic peptide (PEPSCAN-ELISA) / Binding of serum 37 to looped/cyclic peptide (PEPSCAN-ELISA) / Binding of serum 37 to looped/cyclic peptides of protein X1 of SARS-CoV Urbani / Binding of serum 6 to linear peptides of protein X2 / Binding of serum 37 to linear peptides of protein X2 / Binding of serum 37 to looped/cyclic peptides of protein X2 of SARS-CoV Urbani / Binding of serum 6 to linear peptides of protein M of SARS-CoV Urbani / Binding of serum 37 to linear peptides of protein M of SARS-CoV Urbani / Binding of serum 6 to looped/cyclic peptides of protein M of SARS-CoV Urbani / Binding of serum 37 to looped/cyclic peptides of protein M of SARS-CoV Urbani / Binding of serum 6 to linear peptides of protein X3 of SARS-CoV Urbani / Binding of serum 37 to linear peptides of protein X3 of SARS-CoV Urbani / Binding of serum 37 to looped/cyclic peptides of protein X3 of SARS-CoV Urbani / Binding of serum 6 to linear peptides of protein X4 of SARS-CoV Urbani / Binding of serum 37 to linear peptides of protein X4 of SARS-CoV Urbani / Binding of serum 37 to looped/cyclic peptides of protein X4 of SARS-CoV Urbani / Binding of serum 6 to linear peptides of protein X5 of SARS-CoV Urbani / Binding of serum 37 to linear peptides of protein X5 of SARS-CoV Urbani / Binding of serum 37 to looped/cyclic peptides of protein X5 of SARS-CoV Urbani / Binding of serum 6 to linear peptides of protein N of SARS-CoV Urbani / Binding of serum 37 to linear peptides of protein N of SARS-CoV Urbani / Binding of serum 6 to linear peptide (PEPSCAN-ELISA) / Binding of serum 1a to looped/cyclic peptides of protein N of SARS-CoV Urbani / Binding of serum 1b to looped/cyclic peptides of protein N of SARS-CoV Urbani / Binding of serum 2 to looped/cyclic peptides of protein N of SARS-CoV Urbani / Binding of serum 6 to looped/cyclic peptides of protein N of SARS-CoV Urbani / Binding of serum 37 to looped/cyclic peptides of protein N of SARS-CoV Urbani / Binding of serum 62 to looped/cyclic peptides of protein N of SARS-CoV Urbani / Binding of serum London to looped/cyclic peptides of protein N of SARS-CoV Urbani / Binding of serum SARS-green to looped/cyclic peptides of protein N of SARS-CoV Urbani: unit not given here

Sequence: QASLPFGWLVIGVAF
- Binding of a rabbit serum to linear peptides [1]: 0.3
- Binding of a rabbit serum to looped peptides [1]: 0.4
- Binding of Control Serum Blood-Bank to Looped peptides [2]: 0.4
- Binding of Control serum Blood-bank to linear peptides [2]: 0.7
- Binding of Control serum LUMC to linear peptides [2]: 0.6
- Binding of Control serum LUMC to looped peptides [2]: 0.4
- Binding of serum 1a to linear peptides of protein X1 of SARS-CoV Urbani [3]: 0.7
- Binding of serum 1a to looped/cyclic peptide (PEPSCAN-ELISA) [3]: 0.4
- Binding of serum 1b to linear peptides of protein X1 of SARS-CoV Urbani [3]: 0.6
- Binding of serum 1b to looped/cyclic peptide (PEPSCAN-ELISA) [3]: 0.3
- Binding of serum 2 to linear peptides of protein X1 of SARS-CoV Urbani [3]: 0.6
- Binding of serum 2 to looped/cyclic peptide (PEPSCAN-ELISA) [3]: 0.2
- Binding of serum 6 to linear peptides of protein X1 of SARS-CoV Urbani [3]: 0.4
- Binding of serum 6 to looped/cyclic peptide (PEPSCAN-ELISA) [3]: 0.3
- Binding of serum 37 to linear peptides of protein X1 of SARS-CoV Urbani [3]: 0.6
- Binding of serum 37 to looped/cyclic peptide (PEPSCAN-ELISA) [3]: 0.4
- Binding of serum 62 to linear peptides of protein X1 of SARS-CoV Urbani [3]: 0.6
- Binding of serum 62 to looped/cyclic peptide (PEPSCAN-ELISA) [3]: 0.4
- Binding of serum London to linear peptides of protein X1 of SARS-CoV Urbani [3]: 0.2
- Binding of serum London to looped/cyclic peptide (PEPSCAN-ELISA) [3]: 0.2
- Binding of serum SARS-green to linear peptides of protein X1 of SARS-CoV Urbani [3]: 0.1
- Binding of serum SARS-green to looped/cyclic peptide (PEPSCAN-ELISA) [3]: 0.2
- Binding of serum SARS-yellow to linear peptides of protein X1 of SARS-CoV Urbani [3]: 0.5
- Binding of serum SARS-yellow to looped/cyclic peptide (PEPSCAN-ELISA) [3]: 0.2

Sequence: QEEVQQELYSPLFLI
- Rabbit serum linear peptides [1]: 0.4
- Rabbit serum looped peptides [1]: 0.4
- Binding of Control Serum Blood-Bank to Looped peptides [2]: 0.7
- Binding of Control serum Blood-bank to linear peptides [2]: 0.8
- Binding of Control serum LUMC to linear peptides [2]: 0.8
- Binding of Control serum LUMC to looped peptides [2]: 0.8
- Binding of serum 1a to linear peptides of protein X4 of SARS-CoV Urbani [3]: 0.8
- Binding of serum 1b to linear peptides of protein X4 of SARS-CoV Urbani [3]: 0.9
- Binding of serum 2 to linear peptides of protein X4 of SARS-CoV Urbani [3]: 0.6
- Binding of serum 6 to linear peptides of protein X4 of SARS-CoV Urbani [3]: 0.6
- Binding of serum 37 to linear peptides of protein X4 of SARS-CoV Urbani [3]: 0.8
- Binding of serum 62 to linear peptides of protein X4 of SARS-CoV Urbani [3]: 0.8
- Binding of serum London to linear peptides of protein X4 of SARS-CoV Urbani [3]: 0.8
- Binding of serum SARS-green to linear peptides of protein X4 of SARS-CoV Urbani [3]: 1.0
- Binding of serum SARS-yellow to linear peptides of protein X4 of SARS-CoV Urbani [3]: 0.8
- Recognition of the peptide by sera of SARS-CoV infected individuals, and form (linear, looped/cyclic) in which it is recognized [3]: recognized in looped/cyclic form

Sequence: QELLIQQWIQFMMSR
- Binding of a rabbit serum to linear peptides [1]: 0.3
- Binding of a rabbit serum to looped peptides [1]: 0.4
- Binding of Control Serum Blood-Bank to Looped peptides [2]: 0.7
- Binding of Control serum Blood-bank to linear peptides [2]: 0.5
- Binding of Control serum LUMC to linear peptides [2]: 0.3
- Binding of Control serum LUMC to looped peptides [2]: 0.5
- Binding of serum 1a to linear peptides of protein X2 [3]: 0.7
- Binding of serum 1a to looped/cyclic peptides of protein X2 of SARS-CoV Urbani [3]: 0.5
- Binding of serum 1b to linear peptides of protein X2 [3]: 0.4
- Binding of serum 1b to looped/cyclic peptides of protein X2 of SARS-CoV Urbani [3]: 0.5
- Binding of serum 2 to linear peptides of protein X2 [3]: 0.4
- Binding of serum 2 to looped/cyclic peptides of protein X2 of SARS-CoV Urbani [3]: 0.6
- Binding of serum 6 to linear peptides of protein X2 [3]: 0.3
- Binding of serum 6 to looped/cyclic peptides of protein X2 of SARS-CoV Urbani [3]: 0.6
- Binding of serum 37 to linear peptides of protein X2 [3]: 0.5
- Binding of serum 37 to looped/cyclic peptides of protein X2 of SARS-CoV Urbani [3]: 0.5
- Binding of serum 62 to linear peptides of protein X2 [3]: 0.5
- Binding of serum 62 to looped/cyclic peptides of protein X2 of SARS-CoV Urbani [3]: 0.7
- Binding of serum London to linear peptides of protein X2 [3]: 0.4
- Binding of serum London to looped/cyclic peptides of protein X2 of SARS-CoV Urbani [3]: 1.2
- Binding of serum SARS-green to linear peptides of protein X2 [3]: 0.6
- Binding of serum SARS-green to looped/cyclic peptides of protein X2 of SARS-CoV Urbani [3]: 0.3
- Binding of serum SARS-yellow to linear peptides of protein X2 [3]: 0.6
- Binding of serum SARS-yellow to looped/cyclic peptides of protein X2 of SARS-CoV Urbani [3]: 0.5

Sequence: QELYSPLFLIVAALV
- Rabbit serum linear peptides [1]: 0.4
- Rabbit serum looped peptides [1]: 0.5
- Binding of Control Serum Blood-Bank to Looped peptides [2]: 0.7
- Binding of Control serum Blood-bank to linear peptides [2]: 0.6
- Binding of Control serum LUMC to linear peptides [2]: 0.6
- Binding of Control serum LUMC to looped peptides [2]: 0.7
- Binding of serum 1a to linear peptides of protein X4 of SARS-CoV Urbani [3]: 0.7
- Binding of serum 1a to looped/cyclic peptides of protein X4 of SARS-CoV Urbani [3]: 0.6
- Binding of serum 1b to linear peptides of protein X4 of SARS-CoV Urbani [3]: 0.5
- Binding of serum 1b to looped/cyclic peptides of protein X4 of SARS-CoV Urbani [3]: 0.4
- Binding of serum 2 to linear peptides of protein X4 of SARS-CoV Urbani [3]: 0.8
- Binding of serum 2 to looped/cyclic peptides of protein X4 of SARS-CoV Urbani [3]: 0.6
- Binding of serum 6 to linear peptides of protein X4 of SARS-CoV Urbani [3]: 0.6
- Binding of serum 6 to looped/cyclic peptides of protein X4 of SARS-CoV Urbani [3]: 0.3
- Binding of serum 37 to linear peptides of protein X4 of SARS-CoV Urbani [3]: 0.7
- Binding of serum 37 to looped/cyclic peptides of protein X4 of SARS-CoV Urbani [3]: 0.6
- Binding of serum 62 to linear peptides of protein X4 of SARS-CoV Urbani [3]: 0.7
- Binding of serum 62 to looped/cyclic peptides of protein X4 of SARS-CoV Urbani [3]: 0.6
- Binding of serum London to linear peptides of protein X4 of SARS-CoV Urbani [3]: 0.7
- Binding of serum London to looped/cyclic peptides of protein X4 of SARS-CoV Urbani [3]: 0.3
- Binding of serum SARS-green to linear peptides of protein X4 of SARS-CoV Urbani [3]: 0.5
- Binding of serum SARS-green to looped/cyclic peptides of protein X4 of SARS-CoV Urbani [3]: 0.6
- Binding of serum SARS-yellow to linear peptides of protein X4 of SARS-CoV Urbani [3]: 0.2
- Binding of serum SARS-yellow to looped/cyclic peptides of protein X4 of SARS-CoV Urbani [3]: 0.5

Sequence: QFAYSNRNRFLYIIK
- Rabbit serum linear peptides [1]: 0.4
- Rabbit serum looped peptides [1]: 1.2
- Binding of Control Serum Blood-Bank to Looped peptides of the protein M of SARS-CoV Urbani [2]: 0.6
- Binding of Control serum Blood-bank to linear peptides of the protein M of SARS-CoV Urbani [2]: 0.6
- Binding of Control serum LUMC to linear peptides of the protein M of SARS-CoV Urbani [2]: 0.8
- Binding of Control serum LUMC to looped peptides of the protein M of SARS-CoV Urbani [2]: 0.8
- Binding of serum 1a to linear peptides of protein M of SARS-CoV Urbani [3]: 0.7
- Binding of serum 1b to linear peptides of protein M of SARS-CoV Urbani [3]: 0.6
- Binding of serum 2 to linear peptides of protein M of SARS-CoV Urbani [3]: 0.5
- Binding of serum 37 to linear peptides of protein M of SARS-CoV Urbani [3]: 0.4
- Binding of serum 62 to linear peptides of protein M of SARS-CoV Urbani [3]: 0.9
- Binding of serum London to linear peptides of protein M of SARS-CoV Urbani [3]: 0.4
- Binding of serum SARS-green to linear peptides of protein M of SARS-CoV Urbani [3]: 0.5
- Binding of serum SARS-yellow to linear peptides of protein M of SARS-CoV Urbani [3]: 0.3
- Recognition of the peptide by sera of SARS-CoV infected individuals, and form (linear, looped/cyclic) in which it is recognized [3]: recognized in looped/cyclic form
